{"source": "paper PMC10572662", "about": "(International Journal of Molecular Sciences, 2023)", "origin": "cited, not measured here"}
{"set-up": "method as in PMID 17601630", "settings": "native βCD and commercial βCD derivatives", "units": {"water solubility": "mg/mL"}}
{"substance": "2-hydroxypropyl-βCD", "water solubility": 600}
{"substance": "O-methyl-βCD", "water solubility": "> 500"}
{"substance": "sulfobutylether-βCD", "water solubility": "> 500"}
